Here are results for 4 compounds from US5824683A, “2'-[[4'-h alo-[1,1'-biphenyl]-4-yl]methyl]-5'-methyl-spiro[cyclopentane-1,7' (8'H)-[3H] imidazo[2,1-b]purin]-4' (5'H)-ones” (Schering Corporation, priority 1996, dated 1998).

A short description of series [1]: Plasma levels in SHR after oral dosing. In kind it is in vivo. Conditions: rat, 10 mg/kg, 10 mpk orally, sampled 0.5, 1, 2, 3 and 4 hours, read-out: Plasma Level AUC. As to the method: SHRs dosed orally with test compound at 10 mpk and plasma levels were subsequently measured at intervals of 0.5, 1, 2, 3 and 4 hours. Plasma levels (μg/ml) were plotted versus hours post dosing and the area under the curve (AUC, μghr/ml) was calculated.

In series [2] the target is T1, PDE Type V (cGMP phosphodiesterase, cGMP-PDE) (Bos taurus, UniProt Q28156).
T1 construct: homogeneous enzyme obtained from bovine lung and purified by ion-exchange chromatography, gel filtration, and sucrose gradient centrifugation; from tissue; host or cells: bovine lung
Kind of series: Phosphodiesterase inhibition in vitro, Type V (cGMP phosphodiesterase, cGMP-PDE). In kind it is biochemical. Particulars: cGMP-PDE from bovine lung; 1 μM 3H-cGMP substrate; pH 7.5; 25 minutes, room temperature.

The target in series [3] is T2, PDE Type I (calcium-calmodulin dependent phosphodiesterase, CaM-PDE) (Bos taurus, UniProt P14100).
T2 construct: from tissue; host or cells: bovine aorta
Kind of series: Phosphodiesterase inhibition in vitro, Type I (calcium-calmodulin dependent phosphodiesterase, CaM-PDE). In kind it is biochemical. Conditions: CaM-PDE from bovine aorta; 1 μM 3H-cGMP substrate; pH 7.5; 25 minutes, room temperature.

The subject of series [4] is spontaneously hypertensive rats (SHR). Kind of series: Antihypertensive activity in conscious spontaneously hypertensive rats (SHR). It is filed as in vivo, rat. Conditions: 10 mpk po, fasted overnight, mean blood pressure. As to the method: The ability of the compounds of the present invention to lower blood pressure can be assessed in vivo in conscious spontaneously hypertensive rats (SHR). SHR males are purchased from Taconic Farms, Germantown New York and are approximately 16-18 weeks old when anesthetized with ether. The caudal (ventral tail) artery is cannulated with polyethylene tubing (PESO) and blood pressure and heart rate are recorded as described by Baum, T. et. al, J. Cardiovasc. Pharmacol. Vol 5, pp. 655-667, (1983). Rats are placed into plastic cylindrical cages where they rapidly recover consciousness. Blood pressure and heart rate are allowed to stabilize for approximately 90 minutes prior to compound administration. Compounds are administered orally as solutions or suspensions in 0.4% aqueous methylcellulose vehicle via a feeding needle. The compound or 0.4% aqueous methylcellulose vehicle are given in a volume of 4 ml/kg to SHRs that had been fasted overnight. Activity is expressed as the fall in mean blood pressure (MBP) in millimeters of mercury (mm Hg). Compound-induced changes are compared with the changes in an appropriate placebo group.

For `CN1C(=O)c2[nH]c(Cc3ccc(-c4ccc(Cl)cc4)cc3)nc2N2CC3(CCCC3)N=C12` [Example 1], in series [1], the AUC (in general, the area under the concentration-time curve, a measure of exposure) at 4 h was 4800 ng·h/mL. Besides, the concentration for half-maximal inhibition (IC50) – broadly, the midpoint of a concentration-inhibition curve – turned out to be 170 nM in series [2] and 11 nM in series [3]. Further, in series [4], the “SHR Antihypertensive: Fall in MBP” value is recorded as -24 mmHg.

In the case of `CN1C(=O)c2[nH]c(Cc3ccc(-c4ccc(Br)cc4)cc3)nc2N2CC3(CCCC3)N=C12` [Example 2], in series [1], the AUC at 4 h turned out to be 5890 ng·h/mL. In addition, the figures for the IC50 in series [2] and in series [3] were 210 nM and 12 nM, respectively. Besides, the “SHR Antihypertensive: Fall in MBP” value in series [4] is recorded as -11 mmHg.

On to `CN1C(=O)c2[nH]c(Cc3ccc(-c4ccc(F)cc4)cc3)nc2N2CC3(CCCC3)N=C12` [Example 3], for which, in series [1], the AUC at 4 h was 7730 ng·h/mL. The half-maximal inhibitory concentration (IC50) in series [2] was 520 nM; in series [3] it was 9 nM. The “SHR Antihypertensive: Fall in MBP” value in series [4] is reported as -35 mmHg.

Consider `COc1ccc(-c2ccc(Cc3nc4c([nH]3)C(=O)N(C)C3=NC5(CCCC5)CN34)cc2)cc1` [Ref. Cpd., 2'-[[(4'-methoxy-1,1'-biphenyl) -4-yl]methyl]-5'-methyl-spiro[cyclopentane-1,7'(8'H)-[3H]imidazo-[2,1-b]purin]-4'(5'H)-one, reference compound], for which the AUC at 4 h in series [1] is 3340 ng·h/mL. Further, the IC50 stood at 500 nM in series [2] and 5 nM in series [3]. The “SHR Antihypertensive: Fall in MBP” value in series [4] was -35 mmHg.
